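The compound was tested at five concentrations on cells cultured in 96-well plates, with a 48-hour exposure period. TGI denotes the concentration required for complete inhibition of growth.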
Experiments:
Test in all cases: NCI anticancer screen, dose series, 48 h
[1] = tested on: A498 renal
[2] = tested on: A549 NSCLC
[3] = tested on: ACHN renal
[4] = tested on: CAKI-1 renal
[5] = tested on: CCRF-CEM leukemia
[6] = tested on: COLO 205 colon
[7] = tested on: DLD-1 colon
[8] = tested on: DMS 114 small cell lung
[9] = tested on: DMS 273 small cell lung
[10] = tested on: EKVX NSCLC
[11] = tested on: HCC-2998 colon
[12] = tested on: HCT-116 colon
[13] = tested on: HCT-15 colon
[14] = tested on: HL-60(TB) leukemia
[15] = tested on: HOP-62 NSCLC
[16] = tested on: HOP-92 NSCLC
[17] = tested on: HT29 colon
[18] = tested on: IGROV1 ovarian
[19] = tested on: K-562 leukemia
[20] = tested on: KM12 colon
[21] = tested on: KM20L2 colon
[22] = tested on: LXFL 529 NSCLC
[23] = tested on: M14 melanoma
[24] = tested on: M19-MEL melanoma
[25] = tested on: MALME-3M melanoma
[26] = tested on: MOLT-4 leukemia
[27] = tested on: NCI-H23 lung
[28] = tested on: NCI-H460 lung
[29] = tested on: NCI-H522 lung
[30] = tested on: OVCAR-3 ovarian
[31] = tested on: OVCAR-4 ovarian
[32] = tested on: OVCAR-5 ovarian
[33] = tested on: OVCAR-8 ovarian
[34] = tested on: RPMI-8226 leukemia
[35] = tested on: SF-268 CNS
[36] = tested on: SF-295 CNS
[37] = tested on: SF-539 CNS
[38] = tested on: SK-MEL-2 melanoma
[39] = tested on: SK-MEL-28 melanoma
[40] = tested on: SK-MEL-5 melanoma
[41] = tested on: SK-OV-3 ovarian
[42] = tested on: SN12C renal
[43] = tested on: SNB-19 CNS
[44] = tested on: SNB-75 CNS
[45] = tested on: SNB-78 CNS
[46] = tested on: SR leukemia
[47] = tested on: SW-620 colon
[48] = tested on: TK-10 renal
[49] = tested on: U251 CNS
[50] = tested on: UACC-257 melanoma
[51] = tested on: UACC-62 melanoma
[52] = tested on: UO-31 renal
[53] = tested on: XF 498 CNS
[54] = tested on: 786-0 renal
[55] = tested on: HOP-18 NSCLC
[56] = tested on: LOX IMVI melanoma
[57] = tested on: NCI-H226 lung

## Cn1c(=O)c2nc(N3CCOCC3)cnc2n(C)c1=O
[1]
  TGI: > 100 µM
[2]
  TGI: > 100 µM
[3]
  TGI: > 100 µM
[4]
  TGI: > 100 µM
[5]
  TGI: > 100 µM
[6]
  TGI: > 100 µM
[7]
  TGI: > 100 µM
[8]
  TGI: > 100 µM
[9]
  TGI: > 100 µM
[10]
  TGI: > 100 µM
[11]
  TGI: > 100 µM
[12]
  TGI: > 100 µM
[13]
  TGI: > 100 µM
[14]
  TGI: > 100 µM
[15]
  TGI: > 100 µM
[16]
  TGI: > 100 µM
[17]
  TGI: > 100 µM
[18]
  TGI: > 100 µM
[19]
  TGI: > 100 µM
[20]
  TGI: > 100 µM
[21]
  TGI: > 100 µM
[22]
  TGI: > 100 µM
[23]
  TGI: > 100 µM
[24]
  TGI: > 100 µM
[25]
  TGI: > 100 µM
[26]
  TGI: > 100 µM
[27]
  TGI: > 100 µM
[28]
  TGI: > 100 µM
[29]
  TGI: > 100 µM
[30]
  TGI: > 100 µM
[31]
  TGI: > 100 µM
[32]
  TGI: > 100 µM
[33]
  TGI: > 100 µM
[34]
  TGI: > 100 µM
[35]
  TGI: > 100 µM
[36]
  TGI: > 100 µM
[37]
  TGI: > 100 µM
[38]
  TGI: > 100 µM
[39]
  TGI: > 100 µM
[40]
  TGI: > 100 µM
[41]
  TGI: > 100 µM
[42]
  TGI: > 100 µM
[43]
  TGI: > 100 µM
[44]
  TGI: > 100 µM
[45]
  TGI: > 100 µM
[46]
  TGI: > 100 µM
[47]
  TGI: > 100 µM
[48]
  TGI: > 100 µM
[49]
  TGI: > 100 µM
[50]
  TGI: > 100 µM
[51]
  TGI: > 100 µM
[52]
  TGI: > 100 µM
[53]
  TGI: > 100 µM

## COC1CC2C3/C(=N/Nc4ccc([N+](=O)[O-])cc4[N+](=O)[O-])CCC2(C)C3C1 (configuration not stated)
[54]
  TGI: > 10 µM
[1]
  TGI: > 10 µM
[2]
  TGI: > 100 µM
[3]
  TGI: > 10 µM
[4]
  TGI: > 10 µM
[6]
  TGI: > 10 µM
[7]
  TGI: > 10 µM
[8]
  TGI: > 100 µM
[9]
  TGI: > 10 µM
[11]
  TGI: > 10 µM
[12]
  TGI: > 100 µM
[13]
  TGI: > 100 µM
[14]
  TGI: > 100 µM
[55]
  TGI: > 10 µM
[15]
  TGI: > 10 µM
[16]
  TGI: > 10 µM
[17]
  TGI: > 10 µM
[18]
  TGI: > 10 µM
[19]
  TGI: > 100 µM
[20]
  TGI: > 100 µM
[21]
  TGI: > 10 µM
[56]
  TGI: > 10 µM
[22]
  TGI: > 10 µM
[23]
  TGI: > 10 µM
[24]
  TGI: > 10 µM
[25]
  TGI: > 10 µM
[26]
  TGI: > 100 µM
[57]
  TGI: > 10 µM
[27]
  TGI: > 10 µM
[28]
  TGI: > 100 µM
[29]
  TGI: > 10 µM
[30]
  TGI: > 10 µM
[31]
  TGI: > 10 µM
[32]
  TGI: > 10 µM
[33]
  TGI: > 100 µM
[34]
  TGI: > 100 µM
[35]
  TGI: > 100 µM
[36]
  TGI: > 10 µM
[37]
  TGI: > 10 µM
[38]
  TGI: > 10 µM
[39]
  TGI: > 100 µM
[40]
  TGI: > 10 µM
[41]
  TGI: > 10 µM
[42]
  TGI: > 10 µM
[43]
  TGI: > 10 µM
[44]
  TGI: > 10 µM
[46]
  TGI: > 100 µM
[47]
  TGI: > 10 µM
[48]
  TGI: > 100 µM
[49]
  TGI: > 10 µM
[50]
  TGI: > 100 µM
[51]
  TGI: > 10 µM
[52]
  TGI: > 10 µM
[53]
  TGI: > 100 µM

Reference: PubChem BioAssay (NCI)
